Experiments:
[1] = biological target: hGYS1 enzyme (recombinant hGYS1/GN1 protein) (Homo sapiens (Human), UniProt P13807); assay: GYS1 coupled enzyme assay (PK/LDH); type: biochemical; settings: hGYS1/GN1 50 nM, UDP-Glucose 0.8 mM, G6P 1 mM; geometric mean of at least 2 runs
[2] = system: hGYS1 enzyme / glycogen synthesis in HeLa cells; assay: GYS1 cell based assay (glycogen synthesis, Glucose-glo); parameters: species or system human; settings: Homo sapiens, HeLa, 24 h, 24 h incubation, 20 mM glucose, geometric mean of at least 2 runs
Outline: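 HeLa cells starved 24 h in medium containing only 1× Glutamax were plated onto compound in medium with 20 mM glucose (1% DMSO final) for 24 h, 37 °C, 5% CO2. Acid lysates were Tris-quenched, glucoamylase-digested (pH 5.3, 1 h, 37 °C) and read by Glucose-glo luminescence. IC50 came from Hill fits, as geometric mean of ≥2 runs.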

[3] = biological target: hGYS2 enzyme (recombinant hGYS2/GN1 protein) (Homo sapiens (Human), UniProt P54840); assay: GYS2 coupled enzyme assay (PK/LDH); type: biochemical; settings: geometric mean of at least 2 assay runs on separate days, read-out: Avg_IC50
hGYS2 enzyme (recombinant hGYS2/GN1 protein), sequence (P54840 whole entry): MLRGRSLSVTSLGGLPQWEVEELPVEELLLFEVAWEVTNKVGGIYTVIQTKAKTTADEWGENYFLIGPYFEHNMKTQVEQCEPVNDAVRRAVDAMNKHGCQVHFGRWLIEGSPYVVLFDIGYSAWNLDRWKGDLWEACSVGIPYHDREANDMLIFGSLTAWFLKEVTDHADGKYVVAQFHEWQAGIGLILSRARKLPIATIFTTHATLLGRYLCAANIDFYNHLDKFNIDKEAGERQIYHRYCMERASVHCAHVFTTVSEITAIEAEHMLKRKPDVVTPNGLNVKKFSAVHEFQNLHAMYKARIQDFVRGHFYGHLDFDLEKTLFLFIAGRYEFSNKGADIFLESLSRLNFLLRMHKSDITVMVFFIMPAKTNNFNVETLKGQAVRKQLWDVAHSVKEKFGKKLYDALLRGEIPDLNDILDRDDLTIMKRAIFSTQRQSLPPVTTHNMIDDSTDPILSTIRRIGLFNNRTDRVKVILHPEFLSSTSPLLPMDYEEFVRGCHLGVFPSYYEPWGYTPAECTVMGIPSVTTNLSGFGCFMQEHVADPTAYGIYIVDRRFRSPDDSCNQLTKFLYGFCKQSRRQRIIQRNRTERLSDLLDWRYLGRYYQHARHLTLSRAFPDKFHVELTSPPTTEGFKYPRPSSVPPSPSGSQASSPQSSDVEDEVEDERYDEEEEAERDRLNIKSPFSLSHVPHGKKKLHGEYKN
hGYS2 enzyme (recombinant hGYS2/GN1 protein), sequence (P46976 whole entry partner): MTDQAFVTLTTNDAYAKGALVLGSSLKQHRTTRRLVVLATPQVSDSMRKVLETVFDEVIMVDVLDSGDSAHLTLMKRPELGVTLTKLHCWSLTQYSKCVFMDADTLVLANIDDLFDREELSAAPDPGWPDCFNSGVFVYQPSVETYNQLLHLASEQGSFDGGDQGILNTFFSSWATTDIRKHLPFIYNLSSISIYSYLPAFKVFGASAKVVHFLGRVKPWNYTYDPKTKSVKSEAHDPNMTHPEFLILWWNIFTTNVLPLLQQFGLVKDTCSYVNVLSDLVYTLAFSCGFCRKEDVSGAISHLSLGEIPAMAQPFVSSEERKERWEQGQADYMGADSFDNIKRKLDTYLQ
Outline: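 IC50 came from Hill fits of duplicate percent inhibition, based on control-normalized slopes of 340 nm NADH decline read each minute for 10 min. The reaction held recombinant hGYS2/GN1 (200 nM) with glycogen, UDP-glucose, G6P and PEP, plus PK/LDH coupling at pH 7.5 and 2.5% DMSO.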

hGYS1 enzyme (recombinant hGYS1/GN1 protein), sequence (P13807 whole entry): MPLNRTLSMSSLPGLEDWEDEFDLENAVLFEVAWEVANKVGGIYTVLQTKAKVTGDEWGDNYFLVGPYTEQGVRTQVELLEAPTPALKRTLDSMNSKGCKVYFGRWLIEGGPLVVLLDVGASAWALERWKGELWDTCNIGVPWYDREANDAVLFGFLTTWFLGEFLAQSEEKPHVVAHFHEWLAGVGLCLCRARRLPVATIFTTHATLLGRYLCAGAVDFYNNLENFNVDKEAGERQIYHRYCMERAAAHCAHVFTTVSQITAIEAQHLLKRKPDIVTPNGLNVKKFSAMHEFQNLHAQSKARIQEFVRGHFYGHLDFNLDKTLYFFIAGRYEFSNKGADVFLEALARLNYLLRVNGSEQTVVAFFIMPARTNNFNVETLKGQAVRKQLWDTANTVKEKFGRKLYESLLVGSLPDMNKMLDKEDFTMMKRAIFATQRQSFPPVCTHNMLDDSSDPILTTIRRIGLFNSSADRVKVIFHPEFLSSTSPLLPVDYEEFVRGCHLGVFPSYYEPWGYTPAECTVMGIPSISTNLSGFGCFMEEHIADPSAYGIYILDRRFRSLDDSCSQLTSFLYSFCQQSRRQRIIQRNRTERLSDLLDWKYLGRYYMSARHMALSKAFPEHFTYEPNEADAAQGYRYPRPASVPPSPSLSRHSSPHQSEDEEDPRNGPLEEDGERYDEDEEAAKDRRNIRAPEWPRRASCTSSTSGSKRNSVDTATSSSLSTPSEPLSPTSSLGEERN
hGYS1 enzyme (recombinant hGYS1/GN1 protein), sequence (P46976 whole entry partner): as the sequence (P46976 whole entry partner) above

| SMILES | IC50 [1] [nM] | IC50 [2] [nM] | IC50 [3] [nM] |
| --- | --- | --- | --- |
| O=C(N[C@@H](c1ccccc1)c1ccc(C2CC(F)(F)C2)c(F)c1)[C@@H]1C[C@@H](F)CN1C(=O)Cc1cnn[nH]1 [Compound 546, (2S,4R)-N-[(S)-[4-(3,3-difluorocyclobutyl)-3-fluorophenyl](phenyl)methyl]-4-fluoro-1-[2-(1H-1,2,3-triazol-5-yl)acetyl]pyrrolidine-2-carboxamide] | 27 | 510 | > 100000 |
| CC(C)c1ccc([C@@H](NC(=O)[C@@H]2C[C@@H](F)CN2C(=O)Cc2[nH]nnc2N2CCOCC2)c2ccccc2)cc1F [Compound 371, (2S,4R)-4-fluoro-N-[(S)-[3-fluoro-4-(propan-2-yl)phenyl](phenyl)methyl]-1-{2-[4-(morpholin-4-yl)-1H-1,2,3-triazol-5-yl]acetyl}pyrrolidine-2-carboxamide] | 343 | 3880 | > 100000 |
| O=C(N[C@@H](c1ccccc1)c1ccc(C2CC2)c(F)c1)[C@@H]1C[C@@H](F)CN1C(=O)Cc1n[nH]c(=O)[nH]1 [Compound 491, (2S,4R)-N-[(S)-(4-cyclopropyl-3-fluorophenyl)(phenyl)methyl]-4-fluoro-1-[2-(5-oxo-4,5-dihydro-1H-1,2,4-triazol-3-yl)acetyl]pyrrolidine-2-carboxamide] | 93 | 5550 | > 100000 |
| CC1(c2ccc([C@@H](NC(=O)[C@@H]3C[C@@H](F)CN3C(=O)Cc3cnn[nH]3)c3ccccc3)cc2F)CC1 [Compound 558, (2S,4R)-4-fluoro-N-[(S)-[3-fluoro-4-(1-methylcyclopropyl)phenyl](phenyl)methyl]-1-[2-(1H-1,2,3-triazol-5-yl)acetyl]pyrrolidine-2-carboxamide] | 136 | 2460 | > 100000 |
| Cc1cnc(CC(=O)N2C[C@H](F)C[C@H]2C(=O)N[C@@H](c2ccccc2)c2ccc(C3CC(F)(F)C3)cn2)o1 [Compound 536, (2S,4R)-N-[(S)-[5-(3,3-difluorocyclobutyl)pyridin-2-yl](phenyl)methyl]-4-fluoro-1-[2-(5-methyl-1,3-oxazol-2-yl)acetyl]pyrrolidine-2-carboxamide] | 24 | 350 | > 100000 |
| CC1(c2ccc([C@@H](NC(=O)[C@@H]3C[C@@H](F)CN3C(=O)COC(=O)N3CCC3)c3ccccc3)cc2F)CC1 [Compound 560, 2-[(2S,4R)-4-fluoro-2-{[(S)-[3-fluoro-4-(1-methylcyclopropyl)phenyl](phenyl)methyl]carbamoyl}pyrrolidin-1-yl]-2-oxoethyl azetidine-1-carboxylate] | 144 | 1800 | > 100000 |
| O=C(N[C@@H](c1ccccc1)c1ccc(C2CC2)c(F)c1)[C@@H]1C[C@@H](F)CN1C(=O)COC(=O)N1CCC1 [Compound 451, 2-[(2S,4R)-2-{[(S)-(4-cyclopropyl-3-fluorophenyl)(phenyl)methyl]carbamoyl}-4-fluoropyrrolidin-1-yl]-2-oxoethyl azetidine-1-carboxylate] | 95 | 1570 | > 100000 |
| O=C(N[C@@H](c1ccccc1)c1ccc(C2CC2)c(F)c1)[C@@H]1C[C@@H](F)CN1C(=O)Cc1ccc2ncnn2c1 [Compound 478, (2S,4R)-N-[(S)-(4-cyclopropyl-3-fluorophenyl)(phenyl)methyl]-4-fluoro-1-(2-{[1,2,4]triazolo[1,5-a]pyridin-6-yl}acetyl) pyrrolidine-2-carboxamide] | 69 | 1190 | 68200 |
| CN(C)C(=O)NCC(=O)N1C[C@H](F)C[C@H]1C(=O)N[C@@H](c1ccccc1)c1ccc(C2CC(F)(F)C2)cn1 [Compound 532, (2S,4R)—N—((S)-(5-(3,3-difluorocyclobutyl)pyridin-2-yl)(phenyl)methyl)-1-((dimethylcarbamoyl)glycyl)-4-fluoropyrrolidine-2-carboxamide] | 65 | 1180 | > 100000 |
| CC(C)c1ccc([C@@H](NC(=O)[C@@H]2C[C@@H](F)CN2C(=O)Cc2cnnn2C)c2ccccc2)cc1F [Compound 335, (2S,4R)-4-fluoro-N-[(S)-[3-fluoro-4-(propan-2-yl)phenyl](phenyl)methyl]-1-[2-(1-methyl-1H-1,2,3-triazol-5-yl)acetyl]pyrrolidine-2-carboxamide] | 37 | 450 | > 100000 |
| O=C(NC(c1ccccc1)c1ccc(C2CCC2)c(F)c1)[C@@H]1C[C@@H](F)CN1C(=O)Cc1cnn[nH]1 (single isomer, unassigned) [Compound 674, (2S,4R)-N-[(S) or (R)-(4-cyclobutyl-3-fluorophenyl) (phenyl)methyl]-4-fluoro-1-[2-(1H-1,2,3-triazol-5-yl)acetyl]pyrrolidine-2-carboxamide] | 96 | 710 | > 100000 |
| CC(C)c1c(F)cc(C(NC(=O)[C@@H]2C[C@@H](F)CN2C(=O)Cn2ccnn2)c2ccccc2)cc1F (single isomer, unassigned) [Compound 668, (2S,4R)-N-[(S) or (R)-[3,5-difluoro-4-(propan-2-yl)phenyl](phenyl)methyl]-4-fluoro-1-[2-(1H-1,2,3-triazol-1-yl)acetyl]pyrrolidine-2-carboxamide] | 25 | 320 | > 100000 |
| Cn1cc(CC(=O)N2C[C@H](F)C[C@H]2C(=O)N[C@@H](c2ccccc2)c2ccc(C3CC3)c(F)c2)c2ccccc21 [Compound 463, (2S,4R)-N-[(S)-(4-cyclopropyl-3-fluorophenyl)(phenyl)methyl]-4-fluoro-1-[2-(1-methyl-1H-indol-3-yl)acetyl]pyrrolidine-2-carboxamide] | 25 | 670 | > 100000 |
| CC(C)c1ccc([C@@H](NC(=O)[C@@H]2C[C@@H](F)CN2C(=O)Cc2cccn3c(=O)[nH]nc23)c2ccccc2)nc1 [Compound 258, (2S,4R)-4-fluoro-1-(2-{3-oxo-2H,3H-[1,2,4]triazolo[4,3-a]pyridin-8-yl}acetyl)-N-[(S)-phenyl[5-(propan-2-yl)pyridin-2-yl]methyl]pyrrolidine-2-carboxamide] | 26 | 740 | > 100000 |
| CN(C)c1cn(CC(=O)N2C[C@H](F)C[C@H]2C(=O)N[C@@H](c2ccccc2)c2ccc(C3CC3)c(F)c2)nn1 [Compound 484, (2S,4R)-N-[(S)-(4-cyclopropyl-3-fluorophenyl)(phenyl)methyl]-1-{2-[4-(dimethylamino)-1H-1,2,3-triazol-1-yl]acetyl}-4-fluoropyrrolidine-2-carboxamide] | 66 | 820 | > 100000 |
| O=C(N[C@@H](c1ccccc1)c1ccc(C2CC2)c(F)c1)[C@@H]1C[C@@H](F)CN1C(=O)COC(=O)N1CCN(CC2CC2)CC1 [Compound 447, 2-[(2S,4R)-2-{[(S)-(4-cyclopropyl-3-fluorophenyl)(phenyl)methyl]carbamoyl}-4-fluoropyrrolidin-1-yl]-2-oxoethyl 4-(cyclopropylmethyl) piperazine-1-carboxylate] | 96 | 5320 | > 100000 |
| CC(C)c1ccc([C@@H](NC(=O)[C@@H]2C[C@@H](F)CN2C(=O)CNC(=O)N2CCC2)c2ccccc2)nc1 [Compound 265, (2S,4R)-1-{2-[(azetidine-1-carbonyl)amino]acetyl}-4-fluoro-N-[(S)-phenyl[5-(propan-2-yl)pyridin-2-yl]methyl]pyrrolidine-2-carboxamide] | 41 | 830 | > 100000 |
| CN(C)C(=O)NCC(=O)N1C[C@H](F)C[C@H]1C(=O)N[C@H](c1ccccc1)c1ccc(C2CC(F)(F)C2)c(F)c1 [Compound 548, (2S,4R)-N-[(R)-[4-(3,3-difluorocyclobutyl)-3-fluorophenyl](phenyl)methyl]-1-{2-[(dimethylcarbamoyl)amino]acetyl}-4-fluoropyrrolidine-2-carboxamide] | 328 | 5760 | > 100000 |
| Cc1nnc(CC(=O)N2C[C@H](F)C[C@H]2C(=O)N[C@@H](c2ccccc2)c2ccc(C(C)C)c(F)c2)o1 [Compound 332, (2S,4R)-4-fluoro-N-[(S)-[3-fluoro-4-(propan-2-yl)phenyl](phenyl)methyl]-1-[2-(5-methyl-1,3,4-oxadiazol-2-yl)acetyl]pyrrolidine-2-carboxamide] | 25 | 270 | > 100000 |
| O=C(N[C@@H](c1ccccc1)c1ccc(C2CC2)c(F)c1)[C@@H]1C[C@@H](F)CN1C(=O)Cc1nnc(C(F)F)o1 [Compound 427, (2S,4R)-N-[(S)-(4-cyclopropyl-3-fluorophenyl)(phenyl)methyl]-1-{2-[5-(difluoromethyl)-1,3,4-oxadiazol-2-yl]acetyl}-4-fluoropyrrolidine-2-carboxamide] | 165 | 1960 | > 100000 |
| CC(C)c1ccc([C@@H](NC(=O)[C@@H]2C[C@@H](F)CN2C(=O)Cc2[nH]nnc2C(F)(F)F)c2ccccc2)cc1F [Compound 368, (2S,4R)-4-fluoro-N-[(S)-[3-fluoro-4-(propan-2-yl)phenyl](phenyl)methyl]-1-{2-[4-(trifluoromethyl)-1H-1,2,3-triazol-5-yl]acetyl}pyrrolidine-2-carboxamide] | 5 | 150 | > 82300 |

Source: US11814367B2, “Inhibitors of glycogen synthase 1 (GYS1) and methods of use thereof” (Maze Therapeutics, Inc., priority 2021, dated 2023)
